Experimental data reported in ChEMBL document CHEMBL6103589, “Synthesis and evaluation of novel ebselen derivatives as urease inhibitors for combating Helicobacter pylori infections” (Eur J Med Chem, 2025).
pIC50: −log10 of the molar value. ≈ marks a conversion by molar mass, not a printed value. Calls of active or inactive are those of the source. The rule behind the calls is not given here.

test system: Helicobacter pylori; assay: Antibacterial activity against Helicobacter pylori ATCC 43504 incubated for 24 hrs by broth dilution method; type: functional; details: dose 1-64 […]

| Structure (SMILES) | Activity | MIC [µg/mL] |
| --- | --- | --- |
| O=c1c2ccccc2[se]n1-c1ccccc1 [EBSELEN] | Dose-dependent-effect | 32 (≈ 117 µM) |

test system: Helicobacter pylori; assay: Antibacterial activity against Helicobacter pylori ATCC 43504 assessed as inhibition of bacterial colonies at 32 ug/mL incubated for 24 hrs by broth dilution method; type: functional, organism-based; details: dose 32.0 µg/ml

| Structure (SMILES) | Activity |
| --- | --- |
| O=c1c2ccccc2[se]n1-c1ccccc1 [EBSELEN] | Active |

target: Urease subunit alpha/Urease subunit beta (Helicobacter pylori (strain ATCC 700392 / 26695) (Campylobacterpylori), UniProt P69996); assay: Inhibition of Helicobacter pylori ATCC 43504 urease preincubated for 75 mins followed by urea addition and measured after 30 mins by ELISA; type: protein-complex assay; details: not given
Sequence (P69996 whole entry): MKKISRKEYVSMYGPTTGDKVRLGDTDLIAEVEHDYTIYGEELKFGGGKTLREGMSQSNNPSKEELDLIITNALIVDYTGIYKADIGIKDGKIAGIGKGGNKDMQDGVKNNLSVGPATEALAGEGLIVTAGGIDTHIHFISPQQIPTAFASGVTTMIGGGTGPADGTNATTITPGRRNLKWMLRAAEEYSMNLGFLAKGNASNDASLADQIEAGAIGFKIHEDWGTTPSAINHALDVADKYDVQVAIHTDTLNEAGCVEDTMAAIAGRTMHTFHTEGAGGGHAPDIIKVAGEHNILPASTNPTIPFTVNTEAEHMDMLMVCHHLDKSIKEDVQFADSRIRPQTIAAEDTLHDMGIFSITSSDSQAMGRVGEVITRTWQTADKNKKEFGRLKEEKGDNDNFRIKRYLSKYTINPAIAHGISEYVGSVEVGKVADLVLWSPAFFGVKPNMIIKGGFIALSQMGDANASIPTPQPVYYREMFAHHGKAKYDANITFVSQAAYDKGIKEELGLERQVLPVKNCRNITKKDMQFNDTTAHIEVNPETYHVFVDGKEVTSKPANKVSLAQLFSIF
Sequence (P14916 whole entry, further chain): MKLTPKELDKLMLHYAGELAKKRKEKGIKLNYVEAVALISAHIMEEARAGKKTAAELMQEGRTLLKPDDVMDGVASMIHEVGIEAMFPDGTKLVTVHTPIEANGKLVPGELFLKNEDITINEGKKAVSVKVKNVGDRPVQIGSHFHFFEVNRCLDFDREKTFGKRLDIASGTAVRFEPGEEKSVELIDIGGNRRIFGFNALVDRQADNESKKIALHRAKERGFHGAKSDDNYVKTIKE

| Structure (SMILES) | pIC50 |
| --- | --- |
| O=C(c1c(F)cccc1F)n1[se]c2ccccc2c1=O | 5.44 |
| O=c1c2ccccc2[se]n1-c1ccccc1Cl | 5.74 |
| O=c1c2ccccc2[se]n1-c1ccc(C(F)(F)F)cc1F | 5.28 |
| COC(=O)c1ccc(-n2[se]c3ccccc3c2=O)cc1 | 5.28 |
| N#Cc1cccc(-n2[se]c3ccccc3c2=O)c1 | 5.88 |
| O=C(c1ccccc1Br)n1[se]c2ccccc2c1=O | 5.82 |
| O=C(c1cc(F)ccc1F)n1[se]c2ccccc2c1=O | 5.53 |
| O=C(c1ccccc1[N+](=O)[O-])n1[se]c2ccccc2c1=O | 5.58 |
| O=C(c1cccc([N+](=O)[O-])c1)n1[se]c2ccccc2c1=O | 5.91 |
| O=C(Oc1n[se]c2ccccc12)c1c(F)cccc1F | 5.95 |
| O=C(c1ccccc1Cl)n1[se]c2ccccc2c1=O | 5.84 |
| O=C(c1ccc(C(F)(F)F)cc1)n1[se]c2ccccc2c1=O | 5.45 |
| O=C(Oc1n[se]c2ccccc12)c1cc(F)ccc1F | 6.07 |
| O=C(c1ccc(Cl)cc1)n1[se]c2ccccc2c1=O | 5.71 |
| COc1cccc(-n2[se]c3ccccc3c2=O)c1 | 5.18 |
| O=C(c1cccc(F)c1F)n1[se]c2ccccc2c1=O | 5.72 |
| Cc1cccc(C(=O)n2[se]c3ccccc3c2=O)c1 | 5.27 |
| O=C(c1cccc(Cl)c1)n1[se]c2ccccc2c1=O | 5.88 |
| O=c1c2ccccc2[se]n1-c1ccc(F)cc1 | 5.62 |
| Cc1ccccc1C(=O)n1[se]c2ccccc2c1=O | 5.50 |
| CC(C)(C)c1ccc(-n2[se]c3ccccc3c2=O)cc1 | 4.82 |
| O=C(c1cccc(C(F)(F)F)c1)n1[se]c2ccccc2c1=O | 5.84 |
| O=C(c1ccc([N+](=O)[O-])cc1)n1[se]c2ccccc2c1=O | 5.71 |
| O=C(c1ccc(F)c(F)c1)n1[se]c2ccccc2c1=O | 5.47 |
| O=C(c1cc(F)c(F)cc1F)n1[se]c2ccccc2c1=O | 5.48 |
| O=c1c2ccccc2[se]n1-c1cc(F)ccc1Cl | 5.87 |
| O=c1c2ccccc2[se]n1-c1ccc(F)cc1Cl | 5.81 |
| Cc1ccc(-n2[se]c3ccccc3c2=O)cc1C(F)(F)F | 4.92 |

| Structure (SMILES) | pIC50 |
| --- | --- |
| O=C(Oc1n[se]c2ccccc12)c1ccccc1F | 6.51 |
| O=c1c2ccccc2[se]n1-c1ccc(Cl)cc1 | 5.60 |
| COc1cccc(C(=O)n2[se]c3ccccc3c2=O)c1 | 5.70 |
| COc1ccc(-n2[se]c3ccccc3c2=O)cc1 | 5.12 |
| O=C(c1ccc(F)c(F)c1F)n1[se]c2ccccc2c1=O | 5.46 |
| O=c1c2ccccc2[se]n1-c1ccccc1 [EBSELEN] | 5.82 |
| O=C(Oc1n[se]c2ccccc12)c1ccc(F)c(F)c1F | 5.96 |
| O=C(Oc1n[se]c2ccccc12)c1cccc(F)c1F | 6.36 |
| COC(=O)c1cccc(-n2[se]c3ccccc3c2=O)c1 | 5.33 |
| Cc1ccc(C(=O)n2[se]c3ccccc3c2=O)cc1 | 5.43 |
| O=C(c1ccc(Br)cc1)n1[se]c2ccccc2c1=O | 6.03 |
| O=c1c2ccccc2[se]n1-c1ccc(F)c(F)c1 | 5.45 |
| O=c1c2ccccc2[se]n1-c1ccc(OC(F)(F)F)cc1 | 4.97 |
| O=C(c1cccc(Br)c1)n1[se]c2ccccc2c1=O | 6.09 |
| O=C(c1ccccc1C(F)(F)F)n1[se]c2ccccc2c1=O | 5.40 |
| O=c1c2ccccc2[se]n1-c1cccc(Cl)c1 | 5.56 |
| O=c1c2ccccc2[se]n1-c1c(F)cccc1Cl | 5.82 |
| COc1ccccc1C(=O)n1[se]c2ccccc2c1=O | 5.96 |
| O=C(c1cccc(F)c1)n1[se]c2ccccc2c1=O | 6.36 |
| O=C(c1ccccc1F)n1[se]c2ccccc2c1=O | 6.06 |
| O=C(c1ccc(F)cc1)n1[se]c2ccccc2c1=O | 6.05 |
| O=c1c2ccccc2[se]n1-c1cccc(OC(F)(F)F)c1 | 5.14 |
| O=C(Oc1n[se]c2ccccc12)c1ccc(F)cc1F | 6.44 |
| O=C(c1ccc(F)cc1F)n1[se]c2ccccc2c1=O | 5.70 |
| O=C(Oc1n[se]c2ccccc12)c1ccc(F)cc1 | 6.47 |
| COc1ccc(C(=O)n2[se]c3ccccc3c2=O)cc1 | 5.76 |
| Cc1cccc(-n2[se]c3ccccc3c2=O)c1 | 5.50 |
